The test system of one test is PP5. In words: PP5 inhibition in cells by immunoblotting of PP5 substrates phospho-S211-GR and phospho-S13-Cdc37. It is filed as cell-based, human. Conditions: 786-O cells, indicated amounts, 24 hrs. The procedure: Protein Extraction, Immunoprecipitation and Immunoblotting: Protein extraction from mammalian cells was carried out using methods previously described. Cell lysates were quantified using 1× Bradford reagent (Biorad). For immunoprecipitation, cell lysates were incubated with anti-FLAG antibody conjugated beads (Sigma) or anti-HA conjugated beads (ThermoFisher Scientific) at 4° C. for 2 hrs. Endogenous IPs were achieved by incubating lysate with anti-PP5 antibody (Cell Signaling), anti-FADD antibody (Cell Signaling), or anti-RIPK1 antibody (Cell Signaling) overnight followed by protein G agarose (Invitrogen) at 4° C. for 2 hrs. Immunopellets were washed 4 times with fresh lysis buffer (20 mM Tris-HCl (pH 7.4), 100 mM NaCl, 1 mM MgCl2, 0.1% NP40, protease inhibitor cocktail (Roche), and PhosSTOP (Roche)) and eluted in 5× Laemmli buffer. Precipitated proteins were separated by SDS-PAGE and transferred to nitrocellulose membranes. Co-immunoprecipitated proteins or proteins from cell lysate were detected with antibodies recognizing FLAG, 6×-His (ThermoFisher Scientific), GAPDH (ENZO Life Sciences), Cdc37 (StressMarq), GR, phospho-GR (S211), PP5, caspase-3, cleaved caspase-3, caspase-8, cleaved caspase-8, cleaved caspase-7, cleaved-PARP, phospho-RIPK1 (S166), phospho-FADD (S194), PP2A-C, VHL (Cell Signaling), phospho-RIPK1 (S161) (Invitrogen), PP5 and phospho-Cdc37 (S13) (Abcam). […]
(Immunoblotting shows a protein as a band on a membrane.)

The subject of test [1] is 786-O cells. In words: Induction of apoptosis by immunoblotting of apoptotic markers. It is filed as cell-based, human. The procedure: Method Details Cell Transfection and Treatment: Cultured cells were split and then transfected the following day when about 40% confluent with each construct using Mirus TranslT-2020 (MirusBio) according to manufacturer's protocol. Cells were incubated at 37° C. and then extracted or collected for analysis after 24 hrs (HEK293) or 72 hrs (ccRCC cell lines). Short interfering RNA (siRNA) scramble control and PPP5C (PP5) targeting duplexes were purchased from OriGene (SKU: SR321403A, SR321403B, and SR321403C). Indicated cells were transiently transfected with the siRNA using Mirus TranslT-2020. For PP5 knock-down, either 30 nM of control siRNA or 10 nM of each PP5 siRNA duplex (A, B and C) were mixed prior to transfection. Cells were incubated at 37° C. for 72 hrs, then harvested for protein extraction. […] Cells were then harvested for protein extraction.
(§1) Protein Extraction, Immunoprecipitation and Immunoblotting: Protein extraction from mammalian cells was carried out using methods previously described. Cell lysates were quantified using 1× Bradford reagent (Biorad). For immunoprecipitation, cell lysates were incubated with anti-FLAG antibody conjugated beads (Sigma) or anti-HA conjugated beads (ThermoFisher Scientific) at 4° C. for 2 hrs. Endogenous IPs were achieved by incubating lysate with anti-PP5 antibody (Cell Signaling), anti-FADD antibody (Cell Signaling), or anti-RIPK1 antibody (Cell Signaling) overnight followed by protein G agarose (Invitrogen) at 4° C. for 2 hrs. Immunopellets were washed 4 times with fresh lysis buffer (20 mM Tris-HCl (pH 7.4), 100 mM NaCl, 1 mM MgCl2, 0.1% NP40, protease inhibitor cocktail (Roche), and PhosSTOP (Roche)) and eluted in 5× Laemmli buffer. Precipitated proteins were separated by SDS-PAGE and transferred to nitrocellulose membranes. Co-immunoprecipitated proteins or proteins from cell lysate were detected with antibodies recognizing FLAG, 6×-His (ThermoFisher Scientific), GAPDH (ENZO Life Sciences), Cdc37 (StressMarq), GR, phospho-GR (S211), PP5, caspase-3, cleaved caspase-3, caspase-8, cleaved caspase-8, cleaved caspase-7, cleaved-PARP, phospho-RIPK1 (S166), phospho-FADD (S194), PP2A-C, VHL (Cell Signaling), phospho-RIPK1 (S161) (Invitrogen), PP5 and phospho-Cdc37 (S13) (Abcam). Secondary antibodies raised against mouse and rabbit (Cell Signaling) were used (See Key Resources Table).

The target in another test is T1, recombinant PP5-His6 (Homo sapiens, UniProt P53041).
T1 construct: GST (N, cleaved yes); made in house
T1 sequence (P53041 1-499): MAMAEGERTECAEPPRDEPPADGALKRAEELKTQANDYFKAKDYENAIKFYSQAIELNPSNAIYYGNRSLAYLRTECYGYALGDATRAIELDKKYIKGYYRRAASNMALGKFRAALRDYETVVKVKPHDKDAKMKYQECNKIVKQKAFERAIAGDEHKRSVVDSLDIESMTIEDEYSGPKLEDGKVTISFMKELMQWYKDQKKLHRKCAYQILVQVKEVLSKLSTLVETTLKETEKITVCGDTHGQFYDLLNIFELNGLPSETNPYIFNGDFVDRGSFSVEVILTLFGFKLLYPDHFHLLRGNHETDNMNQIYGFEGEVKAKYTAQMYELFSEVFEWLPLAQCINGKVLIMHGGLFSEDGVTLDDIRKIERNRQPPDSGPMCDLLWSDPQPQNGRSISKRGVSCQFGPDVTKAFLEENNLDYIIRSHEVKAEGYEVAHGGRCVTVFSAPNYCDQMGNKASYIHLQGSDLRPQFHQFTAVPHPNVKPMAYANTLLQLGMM
In words: PP5 Phosphatase Activity and Inhibition Assay (PiPer phosphate release, phospho-S211-GR peptide). It is filed as biochemical. Conditions: phospho-S211-GR peptide substrate.

The subject of test [2] is 786-O cells. In words: Cell viability / proliferation MTT assay. It is filed as cell-based, human. The note with it: varying doses, 48 hrs. The procedure: Cell Viability Assay: Renal cancer cell lines 786-O, Caki-2, Caki-1, and A498 as well as the normal renal cell line HK-2 were plated at 10,000 cells per well in 96-well plates. […] After 24 or 48 hrs, cell viability assay was performed using the Quick Cell Proliferation Kit Plus (BioVision) according to the manufacturer's protocol. The absorbance at 450 nm was measured on a Tecan Infinite M200 Pro and proliferation rate was calculated.
(In general: Tetrazolium assays rely on reduction of a dye to a coloured formazan, in cell work by metabolically active cells.)

The next test deals with Hsp90. In words: Time course with Hsp90 inhibitor SNX-2112, protein levels by immunoblot. It is filed as cell-based, human. The note with it: HEK293 cells, 2 μM. The procedure:
Since a vast majority of PP5 substrates are also clients of the molecular chaperone Hsp90, we asked whether RIPK1 and FADD are clients of this chaperone. We therefore performed a time course assay using the Hsp90 inhibitor SNX-2112 (2 μM) in HEK293 cells. […] To further understand the relationship between FADD and Hsp90, we immunoprecipitated endogenous FADD from 786-O cells and examined the co-IP of Hsp90 (FIG. 4G).
as §1

The next test concerns PP2A. The experiment in a line: Biotin-P5 / biotin-P13 pulldown in 786-O lysate, co-pulldown of PP2A. It is filed as binding, human. The note with it: cell lysate, 1 μM.
Another test deals with T2, PP5-FLAG (Homo sapiens, UniProt P53041).
T2 construct: expressed in transfected cells; host or cells: HEK293
T2 sequence (P53041 1-499): T1 sequence (P53041 1-499)
The experiment in a line: Biotin-P5 and biotin-P13 pulldown from HEK293 lysate. It is filed as binding. The note with it: 0.01-10 μM. The procedure:
Biotin-P5 and biotin-P13 Pulldown: HEK293 cells were transiently transfected with PP5-FLAG or active site point mutants and protein lysate extracted. Lysate was incubated with 0.01-10 μM biotin-P5 or biotin P-13 as indicated at 4° C. for 1 hr then added to streptavidin-conjugated agarose and incubated at 4° C. for 1 hr. Following three washes with fresh extraction buffer bound proteins were eluted in 5× Laemmli buffer and analyzed by Western blot. […] Samples were run by SDS PAGE, transferred to nitrocellulose membrane, and analyzed by Western blot.

Residues, ends and D or L forms follow the SMILES beside them. *: point of attachment. Cbz = O=C(OCc1ccccc1)*; CH2F = FC*

Experimental for recombinant PP5-His6: PP5 inhibitors specifically bind to the phosphatase-catalytic domain: We next sought to measure the inhibition of PP5 activity in vitro with P5 and P13.
Bacterial Expression and Protein Purification of PP5: Human PPP5c was cloned into pGEX6P1 with an N-terminal GST tag and C-terminal His6 tag. Transformed cells were grown at 37° C. in LB with 100 mg/L ampicillin until OD600=0.6 and induced with 1 mM IPTG. Cells were harvested by centrifugation and lysed by sonication in lysis buffer (50 mM Hepes (pH 8.0), 150 mM NaCl, 0.5 mM TCEP and EDTA-free protease inhibitor cocktail tablet (Roche)). Lysate was incubated with talon resin (Takara Bio) for 1 hr at 4° C. The resin was washed three times with lysis buffer and PP5 was eluted with lysis buffer containing 250 mM imidazole. Precision protease was added to the elution overnight to cleave the GST tag and the sample was then mixed with Glutathione Sepharose resin (Cytiva) to remove the free GST and un-cleaved protein. The sample was applied to a Superdex S75 16/60 size exclusion column (GE Healthcare) and eluted in 100 mM NaCl, 20 mM Hepes pH 8, 02 mM TCEP.
PP5 Phosphatase Activity and Inhibition Assay: The phosphatase activity of the recombinant PP5-His6 was measured using the PiPer™ Phosphate Assay Kit (Thermo Fisher Scientific) as described in the manufacturer's protocol. Standard curve with linear fit line was created from 0-1 nM Pifinal concentration reactions. 1 nM of PP5-His6 was added to each reaction with indicated amounts of custom synthesized substrate phospho-S211-glucocorticoid receptor (PhosS211-GR) peptide (see Key Resources Table) as specific substrate (Thermo Fisher Scientific). Reactions were run in triplicate and incubated at 37° C. for over 10 min. […] Enzyme kinetics were calculated and plotted using Lineweaver Burk plot and web-based tool (https://www.aatbio.com/tools/ic50-calculator) for calculating IC50 and (https://bioinfo-abcc.ncifcrf.gov/IC50_Ki_Converter/index.php) for converting IC50 to Ki values for inhibitors of enzyme activity and ligand binding.

Regarding `Cc1noc(C)c1S(=O)(=O)Nc1ccc(O)c(C(=O)O)c1` [Compound P0], the “phosphorylation of PP5 substrates phospho-S13-Cdc37 and phospho-S211-GR” value with PP5 was “dose dependent increase in phosphorylation”.

By Ki is commonly meant a measure of affinity in units of concentration, obtained from inhibition or displacement. For `COC(=O)c1cccc(NS(=O)(=O)c2c(C)noc2C)c1` [Compound P5, Methyl m-(3,5-dimethyl-4-isoxazolylsulfonylamino)benzoate], the “cleavage of apoptotic markers caspase 3 and 8 and PARP” value in the test on 786-O cells [1] (10 μM, 24 hrs) is “cleavage of the apoptotic markers caspase 3 and 8 and PARP”. Moreover, the “mode of PP5 inhibition (enzyme kinetics, Lineweaver-Burk)” value on recombinant PP5-His6 is listed as “competitive inhibitors”. Moreover, the Ki at recombinant PP5-His6 (IC50 converted to Ki) amounted to 277 ± 50 nM. Moreover, the “proliferation of 786-O cells (MTT)” value in the test on 786-O cells [2] is listed as “significantly inhibited the proliferation”.

Take `CCCCN(c1ccc(Oc2ccccc2)cc1)S(=O)(=O)c1c(C)noc1C` [Compound P058, N-Butyl(3,5-dimethyl-4-isoxazolylsulfonyl)(p-phenoxyphenyl)amine]: the “induction of apoptosis (cleaved PARP, cleaved caspase 8)” value (“induction of apoptosis” below) in the test with 786-O cells [1] (10 μM, 24 hrs) is on record as “had the ability to induce apoptosis”.

`Cc1noc(C)c1S(=O)(=O)N(CCCCl)c1ccc(Oc2ccccc2)cc1` [Compound P059, (3-Chloropropyl)(3,5-dimethyl-4-isoxazolylsulfonyl)(p-phenoxyphenyl)amine]: in the test on 786-O cells [1] (10 μM, 24 hrs), the “induction of apoptosis” value is recorded as “had the ability to induce apoptosis”.

On to `Cc1noc(C)c1S(=O)(=O)N(CCCC#N)c1ccc(Oc2ccccc2)cc1` [Compound P075, 4-[(3,5-Dimethyl-4-isoxazolylsulfonyl)(p-phenoxyphenyl)amino]butyronitrile], for which the “induction of apoptosis” value with 786-O cells [1] (10 μM, 24 hrs) was “had the ability to induce apoptosis”.

With `CC1(C)CC(=O)c2c(C(F)(F)F)nn(-c3ccc(C(N)=O)c(N[C@H]4CC[C@H](O)CC4)c3)c2C1` [SNX-2112], in the test on Hsp90 (16 hr), the RIPK1 protein levels entry was “decreased RIPK1 protein levels”. The FADD protein levels entry in the test on Hsp90 (throughout time course) is “did not observe a decrease in FADD levels”. The “Hsp90 clients Tsc2, Akt and phos-Ser473-Akt protein levels” value in the test on Hsp90 (time course) was “destabilized and degraded”.

As for `Cc1noc(C)c1S(=O)(=O)Nc1cccc(C(=O)N2CCN(C(=O)CCC[C@@H]3SC[C@@H]4NC(=O)N[C@@H]43)CC2)c1` [biotin-P5, N-[3-(4-(4-[(3aS,4S,6aR)-2-Oxo-hexahydro-1H-thieno[3,4-d]imidazol-4-yl]butanoyl)piperazine-1-carbonyl)phenyl]-3,5-dimethyl-1,2-oxazole-4-sulfonamide], the “binding to PP2A” value in the test on PP2A was “did not bind”. The “binding of PP5-FLAG to biotinylated compound (streptavidin pulldown)” value at PP5-FLAG is recorded as “binds”.

With `COC(=O)C[C@H](NC(=O)[C@H](C)NC(=O)[C@@H](NC(=O)OCc1ccccc1)C(C)C)C(=O)CF` [z-VAD-fmk, reference compound] (Cbz-Val-Ala-Asp(OMe)-CH2F), the “effect on IC261-induced apoptosis” value in the test with 786-O cells [1] (10 μM for 1 hr, then IC261 for 16 hrs) was “reversed this effect”.

The values are drawn from patent US20250360108A1, “CATALYTIC INHIBITOR OF PROTEIN PHOSPHATASE 5 ACTIVATES THE EXTRINSIC APOPTOTIC PATHWAY BY DISRUPTING COMPLEX II” (The Research Foundation for the State University of New York, priority 2022, published 2025).
